Reference: patent US20240287033A1, “DEGRADERS OF TISSUE TRANSGLUTAMINASE 2 (TG2)” (Northwestern University, priority 2023, published 2024)
“Also recorded” adds a separate entry of the source.

Key:
SKOV3 cells [1] = assay: Wound-healing (scratch) assay, SKOV3; type: cell-based
Procedure: (§1) For the scratch assay, confluent 6-well plates were scratched with a pipette tip, washed and treated with compounds or vehicle. The plate was photographed at set time points and the area of wound closure was quantified with ImageJ. Cell migration was assessed by using Transwell inserts (8 μm pore size, Merck-Millipore, Watford, UK). Briefly, 15,000 cells were seeded in the upper chambers of trans-wells in serum-free media containing compounds or control, while media containing 10% serum was added to the lower chamber. After 18 hours, cells invaded through the transwells were fixed with warm 4% PFA for 20 min at room temperature and stained with crystal violet for 3 min. The membranes were removed, mounted on cover slides and cells were counted using a microscope at 40× magnification.

TG2 [2] = target: T1, TG2 (Homo sapiens, UniProt P21980); assay: Western blot analysis of TG2 degradation in SKOV3 cells; type: cell-based; conditions: for TG2 degradation with proteasome inhibitor MG132 co-treatment: MG132 20 μM 8 hrs; for TG2 degradation (western blot): 6 hours, up to 10 μM
T1 construct: tested in multiple ovarian cancer cell lines that express TG2 for their ability to degrade the protein; endogenous in cells; host or cells: OVCAR5 and SKOV3 ovarian cancer cells
T1 sequence (P21980 1-687): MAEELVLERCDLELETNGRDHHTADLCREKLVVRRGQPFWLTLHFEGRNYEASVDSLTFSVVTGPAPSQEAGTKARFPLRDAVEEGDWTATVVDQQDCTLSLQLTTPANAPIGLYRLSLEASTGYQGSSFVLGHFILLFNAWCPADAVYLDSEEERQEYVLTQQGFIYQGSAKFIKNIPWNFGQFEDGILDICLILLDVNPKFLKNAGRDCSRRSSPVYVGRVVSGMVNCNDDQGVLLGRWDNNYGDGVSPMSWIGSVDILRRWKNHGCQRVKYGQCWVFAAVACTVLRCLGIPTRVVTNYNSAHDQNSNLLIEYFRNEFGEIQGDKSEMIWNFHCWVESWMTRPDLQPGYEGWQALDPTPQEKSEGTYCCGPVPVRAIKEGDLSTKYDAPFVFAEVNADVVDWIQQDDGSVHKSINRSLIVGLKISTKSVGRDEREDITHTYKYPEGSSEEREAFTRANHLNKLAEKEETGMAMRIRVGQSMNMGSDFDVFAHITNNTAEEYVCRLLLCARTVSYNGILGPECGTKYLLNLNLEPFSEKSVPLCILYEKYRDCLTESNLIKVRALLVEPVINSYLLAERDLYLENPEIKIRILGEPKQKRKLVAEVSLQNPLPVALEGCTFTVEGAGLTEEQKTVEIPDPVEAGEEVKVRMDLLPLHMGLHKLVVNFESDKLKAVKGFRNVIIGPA
Procedure: (§2) SKOV3 cells were purchased from ATCC. OVCAR5 cells were obtained from Dr. Marcus Peter at Northwestern University. Cells were maintained at 37° C. in an environment of 5% CO2 and 100% humidity. The media used for culturing the cell lines are included in Table 1. Cells lines used in all experiments were at low-passages and were confirmed to be pathogen and mycoplasma-free by Charles River Animal Diagnostic Services. Cell lines were authenticated by IDEXX BioAnalytics with short tandem repeat (STR) profiling. MG132 was obtained from SelleckChem. Anti-TG2 antibody (cat #: MAB3839-I-100UG) was purchased from Millipore Sigma, GAPDH antibody (cat #: H86504M) was purchased from Meridian Bioscience.
(§3) Briefly, SKOV3 and OVCAR5 cells were seeded on 6 cm dishes and treated with different concentrations of compounds at different time points. Proteins were extracted using RIPA buffer and quantified using the Bradford assay. After gel electrophoresis and transfer, PDVF membranes were blocked with TBS-Tween 5% BSA for one hour and incubated with primary antibodies 20 (1:1000 dilution, overnight at 4° C.). After incubation with the secondary antibody (anti rabbit/mouse-horseradish peroxidase 1:1000 dilution) for 1 h at room temperature, signal was developed using SuperSignal West Pico PLUS Chemiluminescent Substrate (Thermo Fisher Scientific cat #: 34580) and captured with an ImageQuant LAS 4000 machine. To detect additional proteins, membranes were treated with Restore Western Blot Stripping Buffer (Thermo Fisher Scientific cat #: 21059), blocked, and then incubated with primary antibody.

SKOV3 cells [3] = assay: Solid phase adhesion assay on fibronectin, SKOV3; type: cell-based
Procedure: (§4) Briefly, wells were coated with 10 μg/ml fibronectin diluted in PBS for one hour. 30,000 cells pretreated with compounds for 6 hours were seeded and allowed to attach for 30 minutes. After washing with PBS to remove unattached cells, cells adhering to coated wells were quantified by using the CCK-8 assay (ApexBio), following the manufacturer's protocol. Relative absorbance measured at 496 nm was used to estimate the relative number of the cell attached to fibronectin coated wells.

OVCAR5 cells [4] = assay: Solid phase adhesion assay on fibronectin, OVCAR5; type: cell-based
Procedure: as §4

TG2 [5] = target: T1, TG2; assay: Western blot analysis of TG2 degradation in OVCAR5 cells; type: cell-based; conditions: for TG2 degradation (western blot): 6 hours, 0.1-10 μM
Procedure: as §2, §3

OVCAR5 cells [6] = assay: Wound-healing (scratch) assay, OVCAR5; type: cell-based
Procedure: as §1

SKOV3 cells [7] = assay: Transwell migration assay, SKOV3; type: cell-based
Procedure: as §1

SKOV3 cells [8] = assay: Cell viability assay (CCK-8), SKOV3; type: cell-based; conditions: 0.1-30 μM, 5 days
Procedure: (§5) The numbers of viable cells were quantified by using the CCK-8 assay (ApexBio) following the manufacturer's directions. Absorbance was measured by a spectrophotometer at 495 nm and used estimate the viability of the cells.

OVCAR5 cells [9] = assay: Cell viability assay (CCK-8), OVCAR5; type: cell-based; conditions: 0.1-30 μM, 5 days
Procedure: as §5

OVCAR5 cells [10] = assay: Transwell migration assay, OVCAR5; type: cell-based
Procedure: as §1

full-length TG2 = target: T2, full-length TG2 (Homo sapiens, UniProt P21980); assay: Isothermal titration calorimetry (ITC) binding to TG2
T2 sequence (P21980 1-687): T1 sequence (P21980 1-687)
Procedure: Sample Preparation. Protein dilutions in PBS with 1% DMSO were prepared from stock solutions of […] in PBS. The protein dilutions were initially equilibrated on ice for 5 min, then for 20 min at 30° C. The solutions were filtered using a […] Millipore centrifugal device just prior to insertion in the ITC cell. The solubility of the protein solutions was confirmed independently by DLS (data not shown), and the concentration of each solution (after filtration) was measured with a NanoDrop 2000 Instrument.
All compound dilutions were made in PBS, and the final DMSO concentration in each solution was carefully adjusted to 1%.
ITC Experiments. All ITC experiments were performed on an Affinity Low Volume instrument (Waters/TA Instruments) equipped with a fixed 198 μL gold cell. In each experiment, 320 μL of protein solution was loaded into the ITC cell, and 200 μL of the corresponding compound was in the syringe. The data were acquired using ITCRun data acquisition software. The incremental ITC experiments consisted of multiple 2 μL injections at 50-350-second intervals with a stirring speed of 100 revolutions per minute (rpm). The Auto Equilibrate function allowed for the equilibration of the baseline to a peak-to-peak standard deviation of less than 12 nW. For each compound, separate control experiments were performed to evaluate the heat of dilution. The control experiments were set with identical parameters but performed with reaction buffer instead of protein in the ITC cell and consisted of fewer (6-10) injections.
Data Analysis. ITC data were analyzed with Nano Analyze Software (Waters/TA Instruments) using the “independent sites” model after correction for heats of dilution.

[11] = 10 μM compound 6 hrs, 10 μM VHL ligand
[12] = dosed every 6-8 hours over 24 hours, 1 or 10 μM

| SMILES | TG2 degradation with proteasome inhibitor MG132 co-treatment (TG2 [2]; 10 μM compound 6 hrs) | TG2 degradation with VHL ligand as competitive inhibitor (TG2 [5]; [11]) | TG2 levels after longer treatment (western blot) (TG2 [5]; 24 hours, single dosing) | TG2 levels after longer treatment (western blot) (TG2 [2]; 24 hours, single dosing) | time of maximal TG2 degradation (TG2 [2]; higher concentrations (10 and 30 μM)) | decrease in affinity relative to the parental compound MT4 (full-length TG2; ITC KD ratio versus MT4) | Kd (full-length TG2; titration into TG2 at 30° C., PBS with 1% DMSO, read-out: equilibrium dissociation constant KD (ITC)) | cell migration, wound-healing assay (SKOV3 cells [1]) | TG2 degradation (western blot) (TG2 [2]) | adhesion of cells to fibronectin (SKOV3 cells [3]) | adhesion of cells to fibronectin (OVCAR5 cells [4]) | TG2 degradation (western blot) (TG2 [5]) | cell migration, wound-healing assay (OVCAR5 cells [6]) | cell migration, transwell migration assay (SKOV3 cells [7]) | cell death / viability (SKOV3 cells [8]) | TG2 levels at 24 hours after repeated dosing (TG2 [5]; [12]) | cell death / viability (OVCAR5 cells [9]) | cell migration, transwell migration assay (OVCAR5 cells [10]) | TG2 degradation with VHL ligand as competitive inhibitor (TG2 [2]; [11]) | TG2 levels at 24 hours after repeated dosing (TG2 [2]; [12]) |
| --- | --- | --- | --- | --- | --- | --- | --- | --- | --- | --- | --- | --- | --- | --- | --- | --- | --- | --- | --- | --- |
| Cc1cc(N(C)CCOCCSC(C)(C)[C@H](NC(=O)C2(F)CC2)C(=O)N2C[C@H](O)C[C@H]2C(=O)NCc2ccc(-c3scnc3C)cc2)nc(Nc2ccc(NC(=O)Cc3ccccc3)cc2)n1 [Compound P405] | blocked |  |  |  |  |  |  | reduce the migration | degrade TG2 | reduce the migration and adhesion capability |  |  |  |  |  |  |  |  |  |  |
| Cc1cc(N(C)CCOCCC(=O)N[C@H](C(=O)N2C[C@@H](O)C[C@H]2C(=O)NCc2ccc(-c3scnc3C)cc2)C(C)(C)C)nc(Nc2ccc(NC(=O)Cc3ccccc3)cc2)n1 [Compound 12, (2S,4S)-1-((S)-3,3-dimethyl-2-(3-(2-(methyl(6-methyl-2-((4-(2-phenylacetamido)phenyl)amino)pyrimidin-4-yl)amino)ethoxy)propanamido)butanoyl)-4-hydroxy-N-(4-(4-methylthiazol-5-yl)benzyl)pyrrolidine-2-carboxamide] |  |  |  |  |  |  |  | did not affect cell migration | did not induce TG2 degradation; also recorded: No degradation of TG2 was observed | did not affect | did not affect | did not induce TG2 degradation; also recorded: No degradation of TG2 was observed | did not affect cell migration |  |  |  |  |  |  |  |
| Cc1cc(N(C)CCOCCOCCOCCOCCOCCC(=O)N[C@H](C(=O)N2C[C@@H](O)C[C@H]2C(=O)NCc2ccc(-c3scnc3C)cc2)C(C)(C)C)nc(Nc2ccc(NC(=O)Cc3ccccc3)cc2)n1 [Compound 13, (2S,4S)-1-((S)-22-(tert-butyl)-2-(6-methyl-2-((4-(2-phenylacetamido)phenyl)amino)pyrimidin-4-yl)-20-oxo-5,8,11,14,17-pentaoxa-2,21-diazatricosan-23-oyl)-4-hydroxy-N-(4-(4-methylthiazol-5-yl)benzyl)pyrrolidine-2-carboxamide] |  |  |  |  |  |  |  | did not affect cell migration | did not induce TG2 degradation; also recorded: No degradation of TG2 was observed | did not affect | did not affect | did not induce TG2 degradation; also recorded: No degradation of TG2 was observed | did not affect cell migration |  |  |  |  |  |  |  |

Continued, in another order:

| TG2 degradation with proteasome inhibitor MG132 co-treatment (TG2 [2]; 10 μM compound 6 hrs) | TG2 degradation with VHL ligand as competitive inhibitor (TG2 [5]; [11]) | TG2 levels after longer treatment (western blot) (TG2 [5]; 24 hours, single dosing) | TG2 levels after longer treatment (western blot) (TG2 [2]; 24 hours, single dosing) | time of maximal TG2 degradation (TG2 [2]; higher concentrations (10 and 30 μM)) | decrease in affinity relative to the parental compound MT4 (full-length TG2; ITC KD ratio versus MT4) | Kd (full-length TG2; titration into TG2 at 30° C., PBS with 1% DMSO, read-out: equilibrium dissociation constant KD (ITC)) | SMILES | cell migration, wound-healing assay (SKOV3 cells [1]) | TG2 degradation (western blot) (TG2 [2]) | adhesion of cells to fibronectin (SKOV3 cells [3]) | adhesion of cells to fibronectin (OVCAR5 cells [4]) | TG2 degradation (western blot) (TG2 [5]) | cell migration, wound-healing assay (OVCAR5 cells [6]) | cell migration, transwell migration assay (SKOV3 cells [7]) | cell death / viability (SKOV3 cells [8]) | TG2 levels at 24 hours after repeated dosing (TG2 [5]; [12]) | cell death / viability (OVCAR5 cells [9]) | cell migration, transwell migration assay (OVCAR5 cells [10]) | TG2 degradation with VHL ligand as competitive inhibitor (TG2 [2]; [11]) | TG2 levels at 24 hours after repeated dosing (TG2 [2]; [12]) |
| --- | --- | --- | --- | --- | --- | --- | --- | --- | --- | --- | --- | --- | --- | --- | --- | --- | --- | --- | --- | --- |
| blocked |  |  |  |  |  |  | Cc1cc(N(C)CCOCCOCCOCCSC(C)(C)[C@H](NC(=O)C2(F)CC2)C(=O)N2C[C@H](O)C[C@H]2C(=O)NCc2ccc(-c3scnc3C)cc2)nc(Nc2ccc(NC(=O)Cc3ccccc3)cc2)n1 [Compound P404] | reduce the migration | degrade TG2 | reduce the migration and adhesion capability |  |  |  |  |  |  |  |  |  |  |
|  | prevented degradation of TG2 | did not induce reduction in TG2 levels | did not induce reduction in TG2 levels | 6 h | 8.8 fold | 68.9 µM | Cc1cc(N(C)CCOCCOCCOCCOCCOCCC(=O)N[C@H](C(=O)N2C[C@H](O)C[C@H]2C(=O)NCc2ccc(-c3scnc3C)cc2)C(C)(C)C)nc(Nc2ccc(NC(=O)Cc3ccccc3)cc2)n1 [Compound 11, (2S,4R)-1-((S)-22-(tert-buty)-2-(6-methyl-2-((4-(2-phenylacetamido)phenyl)amino)pyrimidin-4-yl)-20-oxo-5,8,11,14,17-pentaoxa-2,21-diazatricosan-23-oyl)-4-hydroxy-N-(4-(4-methylthiazol-5-yl)benzyl)pyrrolidine-2-carboxamide] | similarly inhibited the migration | significantly reduced the level of TG2; also recorded: Degradation of TG2 was observed | significantly reduced the adhesion | significantly reduced the adhesion | significantly reduced the level of TG2; also recorded: Degradation of TG2 was observed | potently inhibited the migration | similarly inhibited the migration | No significant cell death; also recorded: no cell death was observed | persistent and dose-dependent decreased TG2 levels | No significant cell death; also recorded: no cell death was observed | potently inhibited the migration | prevented degradation of TG2; also recorded: but not when combined with VHL ligand | persistent and dose-dependent decreased TG2 levels |
